Here are results for nine compounds from patent publication US20050272677A1, “Delivery of a substance to a pre-determined site” (priority 2002, published 2005).

A short description of data set [1]: Release of quinolines from DBC gels by UV-Vis spectroscopy. The class given is physicochemical. The settings on record: into 1 mL PBS pH 7.4, initial 0.001M. An excerpt:
Entrapment of 8-aminoquinoline and 2-hydroxyquinoline (FIG. 61) was achieved by adding a PBS (phosphate-buffered saline) pH 7.4 solution of the quinoline of interest to X mg of DBC (dibenzoyl cystine); X=2, 3.5, 5 or 10, depending on the weight percentage (wt %) of gelator desired. The sample was then heated in a closed vial until complete dissolution of DBC was observed and subsequently allowed to cool to room temperature where gelation of the sample and, thus, entrapment of the quinolines in the gel occured.
After 24 hours, percentages of 8-aminoquinoline and 2-hydroxyquinoline released from DBC gels of different weight percentages into 1mL of PBS solution at pH 7.4 in contact with the gel, were measured by UV-Vis spectroscopy and are reported in Table J. The initial quinoline concentration in the gel was 0.001M. The error on each percentage is ±4%.

Data set [2] is described as follows: Gelation experiment (gel formation in solvents). It is filed as physicochemical. The method, then:
To obtain a gel or to thicken the solvent, the compound is mixed with the required solvent or a mixture of solvents in an amount between 0.01 and 50 wt. %, based on the weight of the composition. Typically, the dissolution of the components will be performed by heating (in some cases it may be helpful to homogenize the components, e.g., vortex) them together at temperatures of 20° C. to 200° C., preferably 50° C. to 150° C. Cooling these hot solutions to a preferred temperature in the range of −20° C. to 100° C., preferably 4° C. to 100° C. affords the gel or thickened solvent. […] In an alternative embodiment, the gelling agent is first dissolved in a polar or apolar solvent followed by the addition of another solvent or solvent mixture, thereby causing gelation to take place.
It will be understood that the use of the present gelling agents or thickeners to prepare a gel or to thicken a composition is also encompassed by the invention. As is well-known, gelling behavior of compounds or compositions is highly unpredictable. […] Preferably, the gelling phenomenon is thermoreversible.
(§1) In a typical gelation experiment, a carefully weighed amount of the dithienylcyclopentene derivative under investigation and 1 ml of the solvent are placed in a test tube, which is sealed and then heated until the compound is dissolved. The solution is allowed to cool to room temperature. […] The gelation process could be followed by UV-vis and CD spectroscopy as depicted in FIG. 58. At low concentrations (0.35 mM), compound D is dissolved in toluene. […] Increasing the concentration to 1.8 mM causes gelation of the solvent, which is accompanied by a change of the UV-visible spectrum, together with the appearance of a strong CD signal at 323 nm (FIG. 58, panels (a) and (c)). Similar changes in the UV-vis and CD spectrum are observed upon gelation of the 1.8 mM solution of D in toluene by cooling to a temperature below the sol-gel phase transition (from here on, referred to as gel(o)). From a plot of the increase of the CD signal versus the temperature, the sol-gel phase transition temperature of gel(o) was determined to be 29° C. for a 1.8 mM solution of D in toluene.

Data set [3] can be described thus: Sol-gel phase transition temperature and photo-switching by CD spectroscopy. It is filed as physicochemical. The method, then:
as §1
In a typical photo-switching experiment, a solution (1.8 mM) of Compound D in toluene was prepared by cooling from 70° C. to the desired temperature (typically between 30° C. and 60° C., i.e., above the gel-sol phase transition temperature of the open form of D) in a cuvette of 1 mm path length. This solution was then irradiated at λ1=313 nm to convert the ring-open form of Compound D to the ring-closed form. By using a 150 W Xe lamp and a 313 nm bandpass filter, the photo-stationary state (PSS) was reached, typically within 10 minutes, which consist of 60 mol % of the closed form and 40 mol % of the open form.

Data set [4] is described as follows: Subcutaneous pH reduction by MES buffer. It is filed as in vivo, rat. The note with it: pH 6.1, 0.5 ml s.c. The method, then: Male Wistar rats remained conscious throughout the study. The subcutaneous pH was constantly recorded using a micro-glass electrode. After stabilization of the pH, 0.5 ml MES buffer (pH 6.1) was injected approximately 3 mm from the pH electrode. The effect of different molarities (50, 100 and 250 mM) of the MES buffer on the time-course of pH reduction was tested.

A short description of data set [5]: pH as stimulus for gel-to-sol and sol-to-gel transitions. The class given is physicochemical. The settings on record: addition of base, reversible. An excerpt: Addition of base to a gel of 1 led to a decrease in melting temperature of the gel. Above pH>4.06, gelation was no longer observed (reversible process; see FIG. 50).
Compound 15 can gelate water and undergoes a sol-to-gel transition around pH=4.93 at room temperature (for a 0.5 wt % gel).

Data set [6] in a line: Gelation in the presence of surfactants and polymeric micelles. It is filed as physicochemical. On the set-up: key: G = gel; C = crystalline; G^a: ^a= not stable.
Assay in data set [7]: as above
The class given is physicochemical. On the set-up: key: g = gel; i = insoluble; p = precipitate; sol = soluble.

The target of a further data set is MscL (Escherichia coli, UniProt P0A742, G22C). The class given is biochemical, E. coli. The settings on record: G22C in DOPC:DOPS liposomes; 2.5 mM MTSEA, 10 mM MTSES. Also noted: made in house; host or cells: E. coli PB104. The method, then: Results Overexpression and Purification of the MscL Channel Protein
Samples were prepared and calcein efflux was monitored as described elsewhere in Example 1.
300 μl of detergent-treated liposomes were gently mixed with 240 μl of 0.25 mg/ml purified MscL-mutant G22C in elution buffer containing 0.2% Triton X-100. The mixture was incubated at 60° C. for 45 minutes, followed by the addition of an equal volume (540 μl) of calcein-loading buffer, containing 200 mM calcein, 25 mM Tris, 1 mM EDTA, pH 8.0. After addition of 20 mg of Triton X-100-absorbing Bio-Beads SM-2, the mixture was gently agitated for one hour at room temperature. Subsequently, 80 mg Bio-Beads were added and incubated at 4° C. overnight under mild agitation. Samples were prepared for calcein efflux assay as described elsewhere.

Data set [8] is described as follows: In vivo delivery of radio-labeled myoglobin with Sunfish/co-lipid complexes.
Procedure: The low molecular-weight protein myoglobin was chosen as the model protein, the molecular weight is 17.8 kDa and iso-electric point 7.3. To enable quantification of organ uptake of myoglobin, myoglobin was radio-labeled with ^125Iodine-tyramine-cellobiose that is retained within the cell in which it is internalized.
The complexation was performed by mixing 3.5 μg of myoglobin in Tricine buffer (pH 8.5) with 75 nmol liposomes consisting of Sunfish and co-lipid in a molar ratio of 1:1 in 5% glucose solution.
Study 2: For complexation, SF-30, in combination with cholesterol in a molar ratio of 1:1, was used. […]
Study 2: BALB/c mice were injected intravenously with ^125Iodine-tyramine-cellobiose-labeled myoglobin complexed with different PEGylated lipid formulations. The mice were sacrificed after 10, 30 or 120 minutes following injection and the body distribution of ^125Iodine was determined. […]
The organ uptake is expressed as the percentage of injected dose ^125Iodine (tyramine-cellobiose) radioactivity. […] The total percentage of radioactivity in the blood was determined by multiplying the percentage per milliliter blood by 0.073 times the body weight in grams, being the total blood volume of the mouse. To allow an accurate comparison, the ratio between radioactivity in total blood and reticuloendothelial system (RES=liver+spleen) was expressed. […]
Data set [9] is described as follows: Urinary excretion of MAG3 after subcutaneous or intravenous injection. The settings on record: free compound.
Procedure: The effect of drug formulation on the rate of drug release in vivo was tested in the rat by external counting of radioactivity.
DOPC/DOPS (90:10, mol/mol) liposomes with or without the MscL-mutant G22C were used (protein-to-lipid ratio of 1:20, wt/wt).
Encapsulation of MAG3 in liposomes was performed by freezing/thawing three times followed by extrusion through a 400 nm filter. The free fraction of the compound was removed by G50 Sephadex column separation.
The normal liposomes were loaded with MAG3 in 0.9% NaCl and eluted on the G50 column with 25 mM HEPES pH 8, 150 mM NaCl.
Male Wistar rats were anaesthetized using iso-flurane O2/NO throughout the study. Liposome-encapsulated MAG3 in a 0.5 ml volume was injected subcutaneously (in the neck) and accumulation of radioactivity in the urinary bladder constantly monitored by external counting using a gamma-camera (window: 140 keV, 250 keV width, one minute time resolution). At the end of the study (after 40 minutes), a ten times higher dose of free MAG3 was administered subcutaneously or intravenously to measure the urinary excretion rates of those formulations.

Chain of MscL (P0A742 whole entry G22C): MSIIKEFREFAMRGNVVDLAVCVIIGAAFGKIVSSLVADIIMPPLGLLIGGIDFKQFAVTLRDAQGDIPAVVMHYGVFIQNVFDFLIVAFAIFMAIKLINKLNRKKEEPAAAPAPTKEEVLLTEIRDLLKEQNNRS

As to `Oc1ccc2ccccc2n1` [2-hydroxyquinoline], the “percentage released from DBC gel after 24 hours” value in data set [1] (DBC 0.35 wt %) came to 38%; in data set [1] (DBC 0.5 wt %), 37%; in [1] (DBC 1.0 wt %), 36%.
Take `Cc1sc(C(=O)N[C@H](C)c2ccccc2)cc1C1=C(c2cc(C(=O)N[C@H](C)c3ccccc3)sc2C)CCC1` [Compound D, 1,2-Bis(2′-methyl-5′-{(((R)-1-phenylethyl)amino)carbonyl}thien-3′-yl)cyclopentene]: in data set [2], the solvents gelated result is listed as “cyclohexane, 1-phenyloctane, toluene, n-butylether, benzene, tetralin”. Moreover, in [3] (1.8 mM in toluene, after irradiation at 313 nm (PSS)), the “sol-gel phase transition temperature of gel(c,I)” value was determined as 62 °C. Also, the “sol-gel phase transition temperature of gel(o)” value in data set [3] (1.8 mM in toluene, open form) was 29 °C. In addition, the “increase of thermal stability compared to gel(o)” value in [3] (gel(c,I)) is “more than 30 °C”.
Regarding `O=S(=O)(O)CCN1CCOCC1` [MES], the “time for subcutaneous pH to return to pH 7.4” value in data set [4] (50 mM) and in [4] (100 mM) was “ten” in each case. For the same compound, in data set [4] (250 mM), the “time pH remained below pH 6.5” value is reported as “more than 30 minutes”.
For the compound `CSCC[C@H](NC(=O)[C@H]1C[C@@H](C(=O)N[C@@H](CCSC)C(=O)O)C[C@@H](C(=O)N[C@@H](CCSC)C(=O)O)C1)C(=O)O` [gelator 1, CHexAmMetOH], the “pH above which gelation was no longer observed” value in data set [5] amounted to 4.06. Further, in data set [2], the solvents gelated entry was “water and lower alcohols”. Also, the Gelation properties result in [6] (CTAB < CMC, * pH reversible gelation) was “C”; in data set [6] (CTAB < CMC, ** pH reversible then thermoreversible gelation) it was “C”; in [6] (CTAB > CMC, * pH reversible gelation), “C”; in data set [6] (CTAB > CMC, ** pH reversible then thermoreversible gelation) it was “C”; in [6] (Lactose der. < CMC, * pH reversible gelation), “G”; in [6] (Lactose der. < CMC, ** pH reversible then thermoreversible gelation), “G”. Besides, the Gelation properties entry is listed as “G” in data set [6] (Lactose der. > CMC, * pH reversible gelation); “G” in data set [6] (Lactose der. > CMC, ** pH reversible then thermoreversible gelation); “G” in data set [6] (Nonionic (Lactose der.) < CMC); “G” in data set [6] (Nonionic (Lactose der.) > CMC); “G” in data set [6] (SDS < CMC, * pH reversible gelation); “G” in data set [6] (SDS < CMC, ** pH reversible then thermoreversible gelation). Moreover, the Gelation properties result is recorded as “G” in data set [6] (SDS > CMC, * pH reversible gelation); “G” in data set [6] (SDS > CMC, ** pH reversible then thermoreversible gelation); “G” in data set [6] (anionic (SDS) < CMC); “G” in [6] (anionic (SDS) > CMC); “C” in [6] (cationic (CTAB) < CMC); “C” in data set [6] (cationic (CTAB) > CMC). For the same compound, the Gelation properties entry in data set [7] (Pluronic P 105, 5 mg · ml^−1) is “p”; in [7] (Pluronic P 105, 5 mg · ml^−1, * pH reversible gelation), “g”; in [7] (Pluronic P 105, 5 mg · ml^−1, ** pH reversible then thermoreversible gelation), “p”; in [7] (Pluronic P 105, 100 mg · ml^−1) it was “p”; in data set [7] (Pluronic P 105, 100 mg · ml^−1, * pH reversible gelation) it was “g”; in data set [7] (Pluronic P 105, 100 mg · ml^−1, ** pH reversible then thermoreversible gelation) it was “p”.
For the compound `Nc1cccc2cccnc12` [8-aminoquinoline], the “percentage released from DBC gel after 24 hours” value in data set [1] (DBC 0.35 wt %) stood at 15%; in data set [1] (DBC 0.5 wt %), 12%; in data set [1] (DBC 1.0 wt %) it was 10%.
In the case of “sodium (2-sulfonatoethyl)methane thiosulfonate [MTSES, reference compound]”, the “calcein release upon addition of MTS compound, versus MTSET” value at MscL was “the kinetics of release are significantly slower”.
As for “2-aminoethyl methanethiosulfonate [MTSEA, reference compound]”, the “calcein release upon addition of MTS compound, versus MTSET” value on MscL is reported as “the kinetics of release are significantly slower”.
“1-(polyethyleneglycol5000-ω-methylether)-4-(10′-cis-nonadecenyl)pyridinium Bromide [SF-79]”: the blood/RES ratio entry in [8] (30 minutes after administration, complex containing 20% SF-79) is “one”. For the same compound, the “circulation time / radioactivity in the blood” value in data set [8] (120 minutes after injection, PEGylated complexes) is “the highest amount of radioactivity in the blood”.
Regarding mertiatide [MAG3], the “time to 50% urinary excretion” value in data set [9] (intravenous) is 3 min; in [9] (subcutaneous), more than 12 min.
